Consider eleven molecules from article PMC11513893, “Discovery of Oral Degraders of the ROS1 Fusion Protein with Potent Activity against Secondary Resistance Mutations” (Journal of Medicinal Chemistry, 2024).

The test system of assay [1] is ROS1. Nature of the assay: ROS1 degradation in Ba/F3 cells (WES immunoblotting). Type of assay: cell-based. Conditions: for DC50: concentration needed to reduce ROS1 protein by 50%, Ba/F3 cells; for Dmax (%) (ROS1): maximal degradation of ROS1 in Ba/F3 cells. The protocol: Protein levels were analyzed using a WES instrument according to the WES User Guide from ProteinSimple in duplicate experiments. The samples were mixed with the fluorescent 5 master mix (ProteinSimple) and then heated at 95 °C for 5 min. Boiled samples, biotinylated protein ladder, antibody diluent, Streptavidin-HRP, primary antibodies, ProteinSimple horseradish peroxidase conjugated antirabbit or antimouse secondary antibodies, luminol-peroxide, and wash buffer were loaded into the WES plate (Wes 12–230 kDa Prefilled Plates with Split Buffer, ProteinSimple). The plates and capillary cartridges were loaded into the WES instrument, and protein separation, antibody incubation, and imaging were performed according to manufacturer’s instructions. Compass software (ProteinSimple) was used to acquire the data and to generate the virtual blot image reconstruction and chemiluminescence signal intensity electropherograms. […] Protein levels are expressed as the AUC of the peak chemiluminescence intensity. Antibodies against phospho-ROS1(Tyr2274/2334) (E8F5J), ROS1 (D4D6(R)) were obtained from Cell Signaling Technology.

Assay [2] relates to Ba/F3 ROS1-G2032R. Nature of the assay: Antiproliferation assay. It is filed as cell-based, mouse. Conditions: Mus musculus, BaF3; Ba/F3 cells, cell growth inhibition, 72 h. An excerpt: (§1) To assess targeted degradation of ROS1 fusion proteins, we first established a mouse pro-B cell line Ba/F3 as a model expressing the CD74-ROS1 oncogene or CD74-ROS1 with clinically observed secondary/tertiary mutations. The Ba/F3 cell line is dependent on interleukin-3 for survival and proliferation. Upon transduction of oncogenic ROS1, Ba/F3 cells become independent of interleukin-3 but dependent on the transduced driver gene.
(§2) Ba/F3 immortalized murine bone marrow–derived pro-B cells were obtained from Creative Biogene (Shirley, NY) and cultured in RPMI supplemented with 10% FBS and IL3 (0.5 ng/mL). Ba/F3 cells expressing ROS1 variants were maintained in RPMI supplemented with 10% FBS and puromycin (0.7 mg/mL). […] Each compound was dissolved in DMSO and serially diluted in RPMI for cell culture experiments.
(§3) To assess the 72 h effect of drug treatment on cell proliferation, 2000 to 3000 cells were plated in replicates of three in 96-well plates. The plates were placed in an incubator at 37 °C, 5% CO2 for 72 h. Following drug treatments, the cells were incubated with the Alamar Blue Assay reagent (BioRad), 5 μL each well for 4 h at 37 °C and 5% CO2. Luminescence was measured on a multiplate reader and analyzed. […] IC50 values were determined using a nonlinear regression model with a sigmoidal dose response in GraphPad. The data were collected based on triplicate experiments, and presented as mean ± SD.
(§4) The resulting virus was used to infect Ba/F3 cells. After retroviral infection, Ba/F3 cells were selected by incubation with puromycin (0.7 mg/mL) for 2 weeks. For Ba/F3 cells infected by the CD74–ROS1 variants, IL3 was withdrawn from the culture medium at least 2 weeks before the experiments.

Assay [3] has as its system Ba/F3 CD74-ROS1 non mutant. Nature of the assay: Antiproliferation assay (Alamar Blue, 72 h). Type of assay: cell-based, mouse. The following applies: Mus musculus, BaF3, 72 h, Ba/F3 cells, cell growth inhibition.
Source text: as §1, §2, §3, §4

Consider `Cc1cc(Nc2ncc(Cl)c(Nc3ccccc3S(=O)(=O)C(C)C)n2)c(OC(C)C)cc1C1CCN(C2CCN(c3cccc4c3C(=O)N(C3CCC(=O)NC3=O)C4=O)CC2)CC1` (centres unmarked) [8c, 4-(4-(4-((5-Chloro-4-((2-(isopropylsulfonyl)phenyl)amino)pyrimidin-2-yl)amino)-5-isopropoxy-2-methylphenyl)-[1,4′-bipiperidin]-1′-yl)-2-(2,6-dioxopiperidin-3-yl)isoindoline-1,3-dione], for which, in assay [1], it took 143 nM to reach half-maximal degradation (DC50). For the same molecule, in assay [1], the “Dmax (%) (ROS1)” value stood at 82%. Besides, the IC50 in assay [2] worked out at 1260 ± 93 nM; in assay [3] it was 107 ± 16 nM.

Regarding `Cc1cc(Nc2ncc(Cl)c(Nc3ccccc3S(=O)(=O)C(C)C)n2)c(OC(C)C)cc1C1CCN(C2CCN(CCNc3cccc4c3C(=O)N(C3CCC(=O)NC3=O)C4=O)CC2)CC1` (centres unmarked) [8d, 4-((2-(4-(4-((5-Chloro-4-((2-(isopropylsulfonyl)phenyl)amino)pyrimidin-2-yl)amino)-5-isopropoxy-2-methylphenyl)-[1,4′-bipiperidin]-1′-yl)ethyl)amino)-2-(2,6-dioxopiperidin-3-yl)isoindoline-1,3-dione], the DC50 in assay [1] turned out to be 302 nM. For the same molecule, in assay [1], the “Dmax (%) (ROS1)” value was 66%. Besides, the half-inhibitory concentration (IC50) was 2560 ± 242 nM in assay [2] and 183 ± 41 nM in assay [3].

`Cc1cc(Nc2ncc(Cl)c(Nc3ccccc3S(=O)(=O)C(C)C)n2)c(OC(C)C)cc1C1CCN(C2CCN(CCCNc3cccc4c3C(=O)N(C3CCC(=O)NC3=O)C4=O)CC2)CC1` (centres unmarked) [8e, 4-((3-(4-(4-((5-Chloro-4-((2-(isopropylsulfonyl)phenyl)amino)pyrimidin-2-yl)amino)-5-isopropoxy-2-methylphenyl)-[1,4′-bipiperidin]-1′-yl)propyl)amino)-2-(2,6-dioxopiperidin-3-yl)isoindoline-1,3-dione]: in assay [1], it took 733 nM to reach half-maximal degradation (DC50) and the “Dmax (%) (ROS1)” value is recorded as 28%. This molecule also showed an IC50 in assay [2] above 10000 nM. The IC50 in assay [3] was 562 ± 61 nM.

`Cc1cc(Nc2ncc(Cl)c(Nc3ccccc3S(=O)(=O)C(C)C)n2)c(OC(C)C)cc1C1CCN(C2CCN(C3CN(c4cccc5c4C(=O)N(C4CCC(=O)NC4=O)C5=O)C3)CC2)CC1` (centres unmarked) [8f, 4-(3-(4-(4-((5-Chloro-4-((2-(isopropylsulfonyl)phenyl)amino)pyrimidin-2-yl)amino)-5-isopropoxy-2-methylphenyl)-[1,4′-bipiperidin]-1′-yl)azetidin-1-yl)-2-(2,6-dioxopiperidin-3-yl)isoindoline-1,3-dione] had a half-maximal degradation concentration (DC50) in assay [1] of 189 nM. In addition, in assay [1], the “Dmax (%) (ROS1)” value amounted to 67%. The IC50 turned out to be 3660 ± 299 nM in assay [2] and 115 ± 22 nM in assay [3].

In assay [1], `Cc1cc(Nc2ncc(Cl)c(Nc3ccccc3S(=O)(=O)C(C)C)n2)c(OC(C)C)cc1C1CCN(C2CCN(CC3CN(c4cccc5c4C(=O)N(C4CCC(=O)NC4=O)C5=O)C3)CC2)CC1` (centres unmarked) [8g, 4-(3-((4-(4-((5-Chloro-4-((2-(isopropylsulfonyl)phenyl)amino)pyrimidin-2-yl)amino)-5-isopropoxy-2-methylphenyl)-[1,4′-bipiperidin]-1′-yl)methyl)azetidin-1-yl)-2-(2,6-dioxopiperidin-3-yl)isoindoline-1,3-dione] displayed a DC50 of 155 nM. Further, the “Dmax (%) (ROS1)” value in assay [1] is reported as 77%. Besides, the concentration for half-maximal inhibition (IC50) in assay [2] came to 950 ± 67 nM; in assay [3] it was 191 ± 60 nM.

For `Cc1cc(Nc2ncc(Cl)c(Nc3ccccc3S(=O)(=O)C(C)C)n2)c(OC(C)C)cc1C1CCN(CCNc2ccc3c(c2)C(=O)N(C2CCC(=O)NC2=O)C3=O)CC1` (centres unmarked) [8h, 5-((2-(4-(4-((5-Chloro-4-((2-(isopropylsulfonyl)phenyl)amino)pyrimidin-2-yl)amino)-5-isopropoxy-2-methylphenyl)piperidin-1-yl)ethyl)amino)-2-(2,6-dioxopiperidin-3-yl)isoindoline-1,3-dione], in assay [1], it took 145 nM to reach half-maximal degradation (DC50) and the “Dmax (%) (ROS1)” value was determined as 71%. This molecule also registered a half-inhibitory concentration (IC50) in assay [2] of 6630 ± 1800 nM. The same molecule came in with an IC50 in assay [3] of 128 ± 39 nM.

Take `Cc1cc(Nc2ncc(Cl)c(Nc3ccccc3S(=O)(=O)C(C)C)n2)c(OC(C)C)cc1C1CCN(CCCNc2ccc3c(c2)C(=O)N(C2CCC(=O)NC2=O)C3=O)CC1` (centres unmarked) [8i, 5-((3-(4-(4-((5-Chloro-4-((2-(isopropylsulfonyl)phenyl)amino)pyrimidin-2-yl)amino)-5-isopropoxy-2-methylphenyl)piperidin-1-yl)propyl)amino)-2-(2,6-dioxopiperidin-3-yl)isoindoline-1,3-dione]: in assay [1], the DC50 was 88 nM and the “Dmax (%) (ROS1)” value is recorded as 84%. In addition, in assay [2], half-maximal inhibition (IC50) was put at 4710 ± 486 nM. The molecule also displayed a half-inhibitory concentration (IC50) in assay [3] of 93 ± 50 nM.

Take `Cc1cc(Nc2ncc(Cl)c(Nc3ccccc3S(=O)(=O)C(C)C)n2)c(OC(C)C)cc1C1CCN(C2CCN(c3ccc4c(c3)C(=O)N(C3CCC(=O)NC3=O)C4=O)CC2)CC1` (centres unmarked) [8j, 5-(4-(4-((5-Chloro-4-((2-(isopropylsulfonyl)phenyl)amino)pyrimidin-2-yl)amino)-5-isopropoxy-2-methylphenyl)-[1,4′-bipiperidin]-1′-yl)-2-(2,6-dioxopiperidin-3-yl)isoindoline-1,3-dione]: in assay [1], half-maximal degradation (DC50) was put at 41 nM and the “Dmax (%) (ROS1)” value stood at 88%. The molecule also came in with a concentration for half-maximal inhibition (IC50) in assay [2] of 1530 ± 521 nM. The same molecule yielded a concentration for half-maximal inhibition (IC50) in assay [3] of 39 ± 8 nM.

Take `Cc1cc(Nc2ncc(Cl)c(Nc3ccccc3S(=O)(=O)C(C)C)n2)c(OC(C)C)cc1C1CCN(C2CCN(CCNc3ccc4c(c3)C(=O)N(C3CCC(=O)NC3=O)C4=O)CC2)CC1` (centres unmarked) [8k, 5-((2-(4-(4-((5-Chloro-4-((2-(isopropylsulfonyl)phenyl)amino)pyrimidin-2-yl)amino)-5-isopropoxy-2-methylphenyl)-[1,4′-bipiperidin]-1′-yl)ethyl)amino)-2-(2,6-dioxopiperidin-3-yl)isoindoline-1,3-dione]: in assay [1], the 50% degradation concentration (DC50) was found to be 204 nM and the “Dmax (%) (ROS1)” value came to 89%. Moreover, the IC50 in assay [2] is 8590 ± 1180 nM. This molecule also had a half-maximal inhibitory concentration (IC50) in assay [3] of 171 ± 26 nM.

`Cc1cc(Nc2ncc(Cl)c(Nc3ccccc3S(=O)(=O)C(C)C)n2)c(OC(C)C)cc1C1CCN(C2CCN(CCCNc3ccc4c(c3)C(=O)N(C3CCC(=O)NC3=O)C4=O)CC2)CC1` (centres unmarked) [8l, 5-((3-(4-(4-((5-Chloro-4-((2-(isopropylsulfonyl)phenyl)amino)pyrimidin-2-yl)amino)-5-isopropoxy-2-methylphenyl)-[1,4′-bipiperidin]-1′-yl)propyl)amino)-2-(2,6-dioxopiperidin-3-yl)isoindoline-1,3-dione]: in assay [1], it took 452 nM to reach half-maximal degradation (DC50) and the “Dmax (%) (ROS1)” value stood at 54%. In assay [2], this molecule displayed an IC50 above 10000 nM. For the same molecule, in assay [3], half-maximal inhibition (IC50) required 598 ± 147 nM.

With `Cc1cc(Nc2ncc(Cl)c(Nc3ccccc3S(=O)(=O)C(C)C)n2)c(OC(C)C)cc1C1CCN(C2CCN(C3CN(c4ccc5c(c4)C(=O)N(C4CCC(=O)NC4=O)C5=O)C3)CC2)CC1` (centres unmarked) [8m, 5-(3-(4-(4-((5-Chloro-4-((2-(isopropylsulfonyl)phenyl)amino)pyrimidin-2-yl)amino)-5-isopropoxy-2-methylphenyl)-[1,4′-bipiperidin]-1′-yl)azetidin-1-yl)-2-(2,6-dioxopiperidin-3-yl)isoindoline-1,3-dione], in assay [1], the DC50 turned out to be 35 nM and the “Dmax (%) (ROS1)” value is recorded as 92%. The same molecule came in with an IC50 in assay [2] of 2770 ± 1080 nM. Moreover, it took 39 ± 34 nM to reach half-maximal inhibition in assay [3] (IC50).
